Measured values: ChEMBL document CHEMBL1137662, “Effect of oral treatment with hexadecyloxypropyl-[(S)-9-(3-hydroxy-2- phosphonylmethoxypropyl)adenine] [(S)-HPMPA] or octadecyloxyethyl-(S)-HPMPA on cowpox or vaccinia virus infections in mice” (Antimicrob Agents Chemother, 2007)
The source made the active and inactive calls. The rule behind the calls is not given here.

Key:
[1] = tested on: Cowpox virus; experiment: Antiviral activity against Cowpox virus Brighton infected BALB/c mouse assessed as mortality at 10 mg/kg, ip treated for 5 days after 72 hrs of viral inoculation; type: functional, Cowpox virus (Brighton Red); settings: route intraperitoneal
[2] = Selectivity index, ratio of CC50 for HFF cells to EC50 for Cowpox virus Brighton; type: toxicity, cell-based; settings: human, read-out: Ratio CC50/EC50
[3] = Selectivity index, ratio of CC50 for HFF cells to EC50 for Vaccinia virus WR; type: toxicity, cell-based; settings: human, read-out: Ratio CC50/EC50
[4] = tested on: Cowpox virus; experiment: Antiviral activity against Cowpox virus Brighton in HFF cells assessed as reduction of viral replication after 3 days; type: functional, organism-based, Cowpox virus (Brighton Red); settings: 72 h
[5] = tested on: Vaccinia virus; experiment: Antiviral activity against Vaccinia virus Copenhagen in HFF cells assessed as reduction of viral replication after 3 days; type: functional, organism-based; settings: Orthopoxvirus vaccinia, 72 h
[6] = Selectivity index, ratio of CC50 for HFF cells to EC50 for Vaccinia virus Copenhagen; type: toxicity, cell-based; settings: human, read-out: Ratio CC50/EC50
[7] = Cytotoxicity against HFF cells after 7 days; type: cell-based; settings: human
[8] = tested on: Vaccinia virus; experiment: Antiviral activity against Vaccinia virus WR infected BALB/c mouse assessed as reduction of viral titer in lung at 30 mg/kg, po treated for 5 days after 24 hrs of viral inoculation; type: functional, organism-based; set-up: dose 30 mg/kg; settings: Orthopoxvirus vaccinia
[9] = tested on: Cowpox virus; experiment: Antiviral activity against Cowpox virus Brighton infected BALB/c mouse assessed as mean death day at 10 mg/kg, po treated for 5 days after 48 hrs of viral inoculation; type: functional, Cowpox virus (Brighton Red)
[10] = tested on: Cowpox virus; experiment: Antiviral activity against Cowpox virus Brighton infected BALB/c mouse assessed as mortality at 10 mg/kg, ip treated for 5 days after 48 hrs of viral inoculation; type: functional, Cowpox virus (Brighton Red); settings: route intraperitoneal
[11] = tested on: Cowpox virus; experiment: Antiviral activity against Cowpox virus Brighton infected BALB/c mouse assessed as mortality at 10 mg/kg, ip treated for 5 days after 24 hrs of viral inoculation; type: functional, Cowpox virus (Brighton Red); settings: route intraperitoneal
[12] = tested on: Vaccinia virus; experiment: Antiviral activity against Vaccinia virus WR infected BALB/c mouse assessed as mortality at 15 mg/kg, ip treated for 5 days after 72 hrs of viral inoculation; type: functional, Orthopoxvirus vaccinia; settings: route intraperitoneal
[13] = tested on: Vaccinia virus; experiment: Antiviral activity against Vaccinia virus WR infected BALB/c mouse assessed as mortality at 15 mg/kg, ip treated for 5 days after 48 hrs of viral inoculation; type: functional, Orthopoxvirus vaccinia; settings: route intraperitoneal
[14] = tested on: Vaccinia virus; experiment: Antiviral activity against Vaccinia virus WR infected BALB/c mouse assessed as mortality at 15 mg/kg, ip treated for 5 days after 24 hrs of viral inoculation; type: functional, Orthopoxvirus vaccinia; settings: route intraperitoneal
[15] = tested on: Vaccinia virus; experiment: Antiviral activity against Vaccinia virus WR infected BALB/c mouse assessed as mortality at 10 mg/kg, ip treated for 5 days after 72 hrs of viral inoculation; type: functional, Orthopoxvirus vaccinia; settings: route intraperitoneal
[16] = tested on: Vaccinia virus; experiment: Antiviral activity against Vaccinia virus WR infected BALB/c mouse assessed as mortality at 10 mg/kg, ip treated for 5 days after 48 hrs of viral inoculation; type: functional, Orthopoxvirus vaccinia; settings: route intraperitoneal
[17] = tested on: Vaccinia virus; experiment: Antiviral activity against Vaccinia virus WR infected BALB/c mouse assessed as mortality at 10 mg/kg, ip treated for 5 days after 24 hrs of viral inoculation; type: functional, Orthopoxvirus vaccinia; settings: route intraperitoneal
[18] = Oral bioavailability in Swiss Webster mouse at 10 mg/kg; type: ADME, organism-based; settings: in vivo
[19] = tested on: Vaccinia virus; experiment: Antiviral activity against Vaccinia virus WR in HFF cells assessed as reduction of viral replication after 3 days; type: functional, organism-based; settings: Orthopoxvirus vaccinia, 72 h

| Compound | Activity [1] | selectivity ratio [2] | selectivity ratio [3] | EC50 [4] | EC50 [5] | selectivity ratio [6] | CC50 at 168 h [7] | Activity [8] | Activity [9] | Activity [10] | Activity [11] | Activity [12] | Activity [13] | Activity [14] | Activity [15] | Activity [16] | Activity [17] | bioavailability [18] | EC50 [19] |
| --- | --- | --- | --- | --- | --- | --- | --- | --- | --- | --- | --- | --- | --- | --- | --- | --- | --- | --- | --- |
| Nc1ccn(C[C@@H](CO)OCP(=O)(O)O)c(=O)n1.O.O [CIDOFOVIR] | 0% | > 9.1 | > 10.9 | 35 µM | 26 µM | > 12.2 | > 317 µM | Active | 11 days | 0% | 0% | 0% | 100% | 0% | 143% | 0% | 0% |  |  |
| Nc1ncnc2c1ncn2C[C@@H](CO)OCP(=O)(O)O |  | > 72 | > 44 | 4 µM | 2.7 µM | > 107 | > 289 µM |  |  |  |  |  |  |  |  |  |  | 24% | 6.5 µM |
| CCCCCCCCCCCCCCCCOCCCOP(=O)(O)CO[C@H](CO)Cn1ccc(N)nc1=O [BRINCIDOFOVIR] |  | 52 | 28 | 0.6 µM | 0.8 µM | 39 | 31 µM |  |  |  |  |  |  |  |  |  |  |  | 1.1 µM |
